Measurements taken from PubChem BioAssay (NCI).
Where “and” joins values, the source holds several entries; their conditions need not be identical. Equal values may be shown once.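 All cell lines were grown in 96-well plates and treated with compound for 48 hours. GI50 is the concentration that inhibits growth by half. TGI marks complete inhibition of growth.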

Columns and labels:
Experiment in all cases: NCI-60 cell line screen, 48 h; in the data active = GI50 below about 0.43 µM; inactive = the rest
786-0 renal = tested on: 786-0 renal
CCRF-CEM leukemia = tested on: CCRF-CEM leukemia
A498 renal = tested on: A498 renal
SK-MEL-5 melanoma = tested on: SK-MEL-5 melanoma
OVCAR-8 ovarian = tested on: OVCAR-8 ovarian
TK-10 renal = tested on: TK-10 renal
OVCAR-3 ovarian = tested on: OVCAR-3 ovarian
M14 melanoma = tested on: M14 melanoma
U251 CNS = tested on: U251 CNS
DU-145 prostate = tested on: DU-145 prostate
NCI-H460 lung = tested on: NCI-H460 lung
KM20L2 colon = tested on: KM20L2 colon
T-47D breast = tested on: T-47D breast
LOX IMVI melanoma = tested on: LOX IMVI melanoma
HCC-2998 colon = tested on: HCC-2998 colon
OVCAR-5 ovarian = tested on: OVCAR-5 ovarian
SK-OV-3 ovarian = tested on: SK-OV-3 ovarian
SNB-19 CNS = tested on: SNB-19 CNS
NCI-H522 lung = tested on: NCI-H522 lung
UO-31 renal = tested on: UO-31 renal
HCT-116 colon = tested on: HCT-116 colon
DMS 273 small cell lung = tested on: DMS 273 small cell lung
KM12 colon = tested on: KM12 colon
COLO 205 colon = tested on: COLO 205 colon
OVCAR-4 ovarian = tested on: OVCAR-4 ovarian
MALME-3M melanoma = tested on: MALME-3M melanoma
HCT-15 colon = tested on: HCT-15 colon
SW-620 colon = tested on: SW-620 colon
HL-60(TB) leukemia = tested on: HL-60(TB) leukemia
SR leukemia = tested on: SR leukemia
SF-268 CNS = tested on: SF-268 CNS
MDA-MB-435 = tested on: MDA-MB-435
DLD-1 colon = tested on: DLD-1 colon
SN12C renal = tested on: SN12C renal
RPMI-8226 leukemia = tested on: RPMI-8226 leukemia
K-562 leukemia = tested on: K-562 leukemia
HOP-92 NSCLC = tested on: HOP-92 NSCLC
UACC-257 melanoma = tested on: UACC-257 melanoma
PC-3 prostate = tested on: PC-3 prostate
MDA-MB-231 breast = tested on: MDA-MB-231 breast
A549 NSCLC = tested on: A549 NSCLC
HS 578T breast = tested on: HS 578T breast
MOLT-4 leukemia = tested on: MOLT-4 leukemia
NCI/ADR-RES ovarian = tested on: NCI/ADR-RES ovarian
EKVX NSCLC = tested on: EKVX NSCLC
SK-MEL-28 melanoma = tested on: SK-MEL-28 melanoma
SNB-78 CNS = tested on: SNB-78 CNS
ACHN renal = tested on: ACHN renal
RXF 393 renal = tested on: RXF 393 renal
CAKI-1 renal = tested on: CAKI-1 renal
SK-MEL-2 melanoma = tested on: SK-MEL-2 melanoma
MCF7 breast = tested on: MCF7 breast
LXFL 529 NSCLC = tested on: LXFL 529 NSCLC
SNB-75 CNS = tested on: SNB-75 CNS
UACC-62 melanoma = tested on: UACC-62 melanoma
NCI-H23 lung = tested on: NCI-H23 lung
BT-549 breast = tested on: BT-549 breast
DMS 114 small cell lung = tested on: DMS 114 small cell lung
IGROV1 ovarian = tested on: IGROV1 ovarian
SF-539 CNS = tested on: SF-539 CNS
NCI-H226 lung = tested on: NCI-H226 lung
M19-MEL melanoma = tested on: M19-MEL melanoma
HOP-62 NSCLC = tested on: HOP-62 NSCLC
SF-295 CNS = tested on: SF-295 CNS
HT29 colon = tested on: HT29 colon

Cc1cc(O)c(C(C)C)cc1S(=O)(=O)O (tested in a mixture with another compound)
7540 nM: TGI (OVCAR-5 ovarian) | TGI (BT-549 breast)
1570 nM: TGI (MCF7 breast)
inactive: GI50 (786-0 renal) 586 nM | GI50 (TK-10 renal) 1220 nM | GI50 (T-47D breast) 856 nM | GI50 (LOX IMVI melanoma) 483 nM | GI50 (OVCAR-5 ovarian) 727 nM | GI50 (OVCAR-4 ovarian) 507 nM | GI50 (MALME-3M melanoma) 774 nM | GI50 (SF-268 CNS) 797 nM | GI50 (SN12C renal) 448 nM | GI50 (UACC-257 melanoma) 963 nM | GI50 (NCI/ADR-RES ovarian) 658 nM | GI50 (EKVX NSCLC) 678 nM | GI50 (SK-MEL-28 melanoma) 634 nM | GI50 (ACHN renal) 1040 nM | GI50 (CAKI-1 renal) 435 nM | GI50 (SK-MEL-2 melanoma) 502 nM | GI50 (UACC-62 melanoma) 566 nM | GI50 (NCI-H23 lung) 427 nM | GI50 (BT-549 breast) 2260 nM | GI50 (IGROV1 ovarian) 554 nM | GI50 (NCI-H226 lung) 850 nM | GI50 (HOP-62 NSCLC) 442 nM
1920 nM: TGI (HS 578T breast)
> 100000 nM and 10900 nM: TGI (ACHN renal)
active: GI50 (CCRF-CEM leukemia) 323 nM | GI50 (A498 renal) 244 nM | GI50 (SK-MEL-5 melanoma) 394 nM | GI50 (OVCAR-8 ovarian) 335 nM | GI50 (OVCAR-3 ovarian) 259 nM | GI50 (M14 melanoma) 296 nM | GI50 (U251 CNS) 368 nM | GI50 (DU-145 prostate) 363 nM | GI50 (NCI-H460 lung) 347 nM | GI50 (HCC-2998 colon) 229 nM | GI50 (SK-OV-3 ovarian) 270 nM | GI50 (SNB-19 CNS) 423 nM | GI50 (NCI-H522 lung) 238 nM | GI50 (UO-31 renal) 382 nM | GI50 (HCT-116 colon) 343 nM | GI50 (KM12 colon) 381 nM | GI50 (COLO 205 colon) 224 nM | GI50 (HCT-15 colon) 380 nM | GI50 (SW-620 colon) 404 nM | GI50 (HL-60(TB) leukemia) 279 nM | GI50 (SR leukemia) 160 nM | GI50 (MDA-MB-435) 171 nM | GI50 (RPMI-8226 leukemia) 357 nM | GI50 (K-562 leukemia) 375 nM | GI50 (HOP-92 NSCLC) 188 nM | GI50 (PC-3 prostate) 318 nM | GI50 (MDA-MB-231 breast) 377 nM | GI50 (A549 NSCLC) 372 nM | GI50 (HS 578T breast) 281 nM | GI50 (MOLT-4 leukemia) 401 nM | GI50 (RXF 393 renal) 213 nM | GI50 (MCF7 breast) 325 nM | GI50 (SNB-75 CNS) 378 nM | GI50 (SF-539 CNS) 319 nM | GI50 (SF-295 CNS) 281 nM | GI50 (HT29 colon) 337 nM
9010 nM: TGI (PC-3 prostate)
2160 nM: TGI (A498 renal)
1440 nM: TGI (SK-MEL-5 melanoma)
1100 nM: TGI (HT29 colon)
2450 nM: TGI (DU-145 prostate)
6640 nM: TGI (OVCAR-4 ovarian)
10800 nM: TGI (CAKI-1 renal)
> 100000 nM and 10400 nM: TGI (NCI-H23 lung)
1660 nM: TGI (HOP-92 NSCLC)
2460 nM: TGI (SK-MEL-2 melanoma)
> 100000 nM and 14300 nM: TGI (EKVX NSCLC)
464 nM: TGI (MDA-MB-435)
> 100000 nM: TGI (KM20L2 colon) | TGI (DMS 273 small cell lung) | TGI (DLD-1 colon) | TGI (SNB-78 CNS) | TGI (LXFL 529 NSCLC) | TGI (DMS 114 small cell lung) | TGI (M19-MEL melanoma)
1650 nM: TGI (MDA-MB-231 breast)
4790 nM: TGI (T-47D breast) | TGI (NCI/ADR-RES ovarian)

CNS(=O)(=O)NN(C)S(=O)(=O)c1ccccc1
> 100000 nM: TGI (786-0 renal) | TGI (CCRF-CEM leukemia) | TGI (A498 renal) | TGI (SK-MEL-5 melanoma) | TGI (OVCAR-8 ovarian) | TGI (TK-10 renal) | TGI (M14 melanoma) | TGI (U251 CNS) | TGI (NCI-H460 lung) | TGI (KM20L2 colon) | TGI (LOX IMVI melanoma) | TGI (HCC-2998 colon) | TGI (SNB-19 CNS) | TGI (NCI-H522 lung) | TGI (UO-31 renal) | TGI (HCT-116 colon) | TGI (DMS 273 small cell lung) | TGI (KM12 colon) | TGI (COLO 205 colon) | TGI (OVCAR-4 ovarian) | TGI (MALME-3M melanoma) | TGI (HCT-15 colon) | TGI (SW-620 colon) | TGI (HL-60(TB) leukemia) | TGI (SR leukemia) | TGI (SF-268 CNS) | TGI (DLD-1 colon) | TGI (SN12C renal) | TGI (RPMI-8226 leukemia) | TGI (K-562 leukemia) | TGI (UACC-257 melanoma) | TGI (A549 NSCLC) | TGI (MOLT-4 leukemia) | TGI (EKVX NSCLC) | TGI (ACHN renal) | TGI (RXF 393 renal) | TGI (CAKI-1 renal) | TGI (SK-MEL-2 melanoma) | TGI (LXFL 529 NSCLC) | TGI (SNB-75 CNS) | TGI (UACC-62 melanoma) | TGI (NCI-H23 lung) | TGI (DMS 114 small cell lung) | TGI (IGROV1 ovarian) | TGI (SF-539 CNS) | TGI (NCI-H226 lung) | TGI (M19-MEL melanoma) | TGI (HOP-62 NSCLC) | TGI (SF-295 CNS) | TGI (HT29 colon)
